According to patent publication US20260184708A1, “PYRIDAZINONES AND METHODS OF USE THEREOF” (GFB (ABC), LLC, priority 2017, published 2026):

molecular target: T1, TRPC4 (Homo sapiens, UniProt Q9UBN4); assay: TRPC4 FLIPR Assay (HEK-TREx hTRPC4, Englerin A stimulation); type: cell-based; settings: Table 8; HEK-TREx hTRPC4; read-out: TRPC4 FLIPR IC50
T1 construct: expressed in transfected cells; host or cells: HEK-TREx (HekTrex-293), cell line ICLN-1694, tetracycline-induced
T1 sequence (Q9UBN4 1-982 isoform Q9UBN4-5): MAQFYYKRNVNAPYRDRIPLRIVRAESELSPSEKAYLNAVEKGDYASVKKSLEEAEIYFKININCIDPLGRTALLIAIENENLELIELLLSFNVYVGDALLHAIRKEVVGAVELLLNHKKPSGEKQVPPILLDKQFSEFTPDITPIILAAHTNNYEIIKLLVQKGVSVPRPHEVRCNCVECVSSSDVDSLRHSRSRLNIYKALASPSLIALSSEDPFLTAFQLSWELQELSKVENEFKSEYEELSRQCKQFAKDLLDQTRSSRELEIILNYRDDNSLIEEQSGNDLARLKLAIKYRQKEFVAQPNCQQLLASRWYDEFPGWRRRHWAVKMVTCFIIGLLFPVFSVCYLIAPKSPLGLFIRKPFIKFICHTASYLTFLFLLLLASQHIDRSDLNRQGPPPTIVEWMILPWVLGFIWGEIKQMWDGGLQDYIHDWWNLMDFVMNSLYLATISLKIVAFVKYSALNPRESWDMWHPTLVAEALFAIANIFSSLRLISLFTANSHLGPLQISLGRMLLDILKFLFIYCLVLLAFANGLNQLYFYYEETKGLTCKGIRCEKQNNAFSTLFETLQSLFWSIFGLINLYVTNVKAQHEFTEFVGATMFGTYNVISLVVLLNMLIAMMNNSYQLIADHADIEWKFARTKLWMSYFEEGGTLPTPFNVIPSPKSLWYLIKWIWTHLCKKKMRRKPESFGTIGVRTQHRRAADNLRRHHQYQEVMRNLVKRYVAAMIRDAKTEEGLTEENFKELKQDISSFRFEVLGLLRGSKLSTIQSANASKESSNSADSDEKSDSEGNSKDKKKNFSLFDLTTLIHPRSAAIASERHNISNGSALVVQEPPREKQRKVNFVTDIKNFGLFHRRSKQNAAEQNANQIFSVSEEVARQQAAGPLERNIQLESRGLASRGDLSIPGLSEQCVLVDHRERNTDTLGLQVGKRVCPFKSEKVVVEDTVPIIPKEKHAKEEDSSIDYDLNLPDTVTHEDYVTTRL
Experimental: FLIPR Assay Buffer (Earls Balanced Salt Solution (EBSS)) was prepared as follows:
10-point dose response curves were generated using the Echo-550 acoustic dispenser. Compound source plates were made by serially diluting compound stocks to create 10 mM, 1 mM, and 0.1 mM solutions in DMSO into Echo certified LDV plates. The Echo then serially spotted 100% DMSO stock solutions into source dose response plates to generate a 4-fold dilution scheme. 100% DMSO was added to the spotted dose response plates to bring the final volume to 5 μl. […] of the dose response stock plate was then spotted into pre-incubation and stimulation assay plates. […] of pre-incubation buffer and 100 μl of stimulation buffer was then added to the plates resulting in a final assay test concentration range of 30 μM to 0.0001 μM with a final DMSO concentration of 0.3%.
Experimental Methods: Cells expressing TRPC4 were plated onto 384 well, black pdl-coated microplates and maintained in TRPC4 growth media the day prior to use for experiments. TRPC4 expression was induced by the application of 1 μg/ml tetracycline at the time of plating. […] Cells were incubated at room temperature, protected from light, for 60-90 minutes. After the incubation period, the dye was removed and replaced with 10 μl of EBSS. Cell, pre-incubation and stimulation plates were loaded onto the FLIPR-II and the assay was initiated. The FLIPR measured a 10 second baseline and then added 10 μl of 2× compounds (or controls). Changes in fluorescence were monitored for an additional 5 minutes. After a 5 minute pre-incubation, 20 μl of 2× Englerin A (with 1× compound or controls) was added to the cell plate. The final Engerlin A stimulation concentration in the assay is 100 nM. After the Englerin A addition, changes in fluorescence were monitored for an additional 5 minutes.
Test Agent Effect: Test agent modulation of TRPC4 calcium response was determined as follows. After the Englerin A, fluorescence was monitored for a 5 minute period. The maximum relative fluorescence response (minus the control response of […] of the control inhibitor) was captured and exported from the FLIPR. Test agent effect was calculated as % inhibition using the following formula: % inhibition=((RFU TEST AGENT−Plate Average RFU REF INHIB)/(Plate Average RFU CONTROL−Plate Average RFU REF INHIB))×100

| Structure (SMILES) | IC50 [nM] |
| --- | --- |
| CS(=O)(=O)c1nc2c(n1Cc1ccccc1C(F)(F)F)CCN(c1cn[nH]c(=O)c1Cl)C2 [drawing 1002] | 0.01 to 1000 |
| CN(c1ncc2c(n1)CN(c1cn[nH]c(=O)c1Cl)C2)c1ccc(F)cc1Cl [drawing 1003] | 0.01 to 1000 |
| CCN(c1ncc2c(n1)CN(c1cn[nH]c(=O)c1Cl)C2)c1ccccc1Cl [drawing 1004] | 0.01 to 1000 |
| O=c1[nH]ncc(N2CCc3c(Cc4ccc(F)cc4C(F)(F)F)n[nH]c3C2)c1Cl [drawing 1005] | 0.01 to 1000 |
| CCc1ncccc1N(C)c1ncc2c(n1)CN(c1cn[nH]c(=O)c1Cl)C2 [drawing 1006] | 0.01 to 1000 |
| Cc1ccccc1CN1CCN(c2cn[nH]c(=O)c2Cl)CC1=O [drawing 1008] | 0.01 to 1000 |
| O=C1CN(c2cn[nH]c(=O)c2Br)CCN1Cc1cccc2ccccc12 [drawing 1009] | 0.01 to 1000 |
| O=c1[nH]ncc(N2CCN(Cc3ccccc3Cl)CC2)c1Cl [drawing 1010] | 1000 to 5000 |
| Cc1cc(F)ccc1CN1CCN(c2cn[nH]c(=O)c2Cl)CC1 [drawing 1012] | 5000 to 10000 |
| O=C1CN(c2cn[nH]c(=O)c2Cl)CCN1Cc1ccc(F)cc1Cl [drawing 1013] | 0.01 to 1000 |
| O=C1CN(c2cn[nH]c(=O)c2Cl)CCN1Cc1ccc(F)cc1F [drawing 1014] | 1000 to 5000 |
| O=C1CN(c2cn[nH]c(=O)c2Cl)CCN1Cc1ccccc1OC(F)(F)F [drawing 1015] | 0.01 to 1000 |
| C[C@@H]1CN(Cc2ccccc2C(F)(F)F)CCN1c1cn[nH]c(=O)c1Cl [drawing 1016] | 5000 to 10000 |
| Cc1ncccc1CN1CCN(c2cn[nH]c(=O)c2Cl)CC1 [drawing 1017] | 1000 to 5000 |
| Cc1cc(Cl)ccc1CN1CCN(c2cn[nH]c(=O)c2Cl)CC1=O [drawing 1018] | 1000 to 5000 |
| Cc1ccccc1[C@H](C)N1CCN(c2cn[nH]c(=O)c2Cl)CC1=O [drawing 1020] | 10000 to 500000 |
| COc1cc(F)ccc1CN1CCN(c2cn[nH]c(=O)c2Cl)CC1=O [drawing 1021] | 1000 to 5000 |

same assay, conditions: Table 10; HEK-TREx hTRPC4; read-out: TRPC4-FLIPR ICSO

| Structure (SMILES) | IC50 [nM] |
| --- | --- |
| CN1CCN(Cc2nn(Cc3ccccc3C(F)F)c3c2CN(c2cn[nH]c(=O)c2Cl)CC3)C(=O)C1 [drawing 1091] | 0.01 to 1000 |

molecular target: T2, TRPC5 (Homo sapiens, UniProt Q9UL62); assay: TRPC5 fluorescence assay, membrane potential dye, flexstation (FLEX); type: cell-based; settings: Table 6; HEK293 cells overexpressing TRPC5
T2 construct: expressed in transfected cells; host or cells: HEK 293
T2 sequence (Q9UL62 1-973): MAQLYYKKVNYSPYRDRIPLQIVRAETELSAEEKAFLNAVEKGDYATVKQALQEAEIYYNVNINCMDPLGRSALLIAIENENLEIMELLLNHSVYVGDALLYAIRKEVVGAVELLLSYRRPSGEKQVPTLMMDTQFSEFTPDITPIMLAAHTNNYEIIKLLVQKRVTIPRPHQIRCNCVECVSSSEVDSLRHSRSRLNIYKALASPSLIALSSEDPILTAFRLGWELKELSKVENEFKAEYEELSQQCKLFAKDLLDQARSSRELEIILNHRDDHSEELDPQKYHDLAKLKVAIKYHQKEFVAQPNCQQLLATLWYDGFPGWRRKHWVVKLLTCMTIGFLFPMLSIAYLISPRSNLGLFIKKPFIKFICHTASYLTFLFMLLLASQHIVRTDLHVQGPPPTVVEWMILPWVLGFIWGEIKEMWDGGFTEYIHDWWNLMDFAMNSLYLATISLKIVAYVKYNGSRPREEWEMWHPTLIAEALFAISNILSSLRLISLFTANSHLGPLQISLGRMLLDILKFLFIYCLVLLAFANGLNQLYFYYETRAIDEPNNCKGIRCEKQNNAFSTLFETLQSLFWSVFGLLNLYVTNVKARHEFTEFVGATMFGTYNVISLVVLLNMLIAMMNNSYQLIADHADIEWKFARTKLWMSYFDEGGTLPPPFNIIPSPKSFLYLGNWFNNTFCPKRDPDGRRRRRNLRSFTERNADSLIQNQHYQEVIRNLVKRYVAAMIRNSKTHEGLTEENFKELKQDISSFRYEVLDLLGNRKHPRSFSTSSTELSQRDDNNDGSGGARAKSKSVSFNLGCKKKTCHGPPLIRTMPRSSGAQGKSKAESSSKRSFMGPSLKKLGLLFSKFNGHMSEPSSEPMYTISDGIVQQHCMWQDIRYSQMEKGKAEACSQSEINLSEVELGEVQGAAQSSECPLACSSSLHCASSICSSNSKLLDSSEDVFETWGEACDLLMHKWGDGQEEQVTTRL
Experimental: HEK 293 cells expressing human TRPC5 cells were trypsinised, counted and seeded in black, clear-bottomed 96-well plates at a density of 50,000 cells per well and incubated overnight. Next day, the cells were loaded with membrane potential dye. Dye solution was made up according to the manufacturer's instructions in HEPES buffered Hank's balanced salt solution (HBSS). Dye solution (10 μL) was added to the wells and incubated at 37° C. for 1 hour. The test compounds and standard inhibitors were added to the wells and incubated at room temperature for 10 minutes. The plates were then placed in the flexstation and fluorescence monitored every 1.52 seconds. After 20 seconds, 10 μL of the appropriate standard agonist was added and the fluorescence monitored for 2 minutes at ex/emm: 530 nm/565 nm.

| Structure (SMILES) | IC50 [nM] |
| --- | --- |
| Cc1ncccc1Cn1cnc2c1CN(c1cn[nH]c(=O)c1Cl)CC2 | 1000 to 5000 |
| O=c1[nH]ncc(N2CCc3nn(Cc4ccc(F)cc4C(F)(F)F)cc3C2)c1Cl | 0.01 to 1000 |
| Cc1cccc(C)c1Cn1cnc2c1CCN(c1cn[nH]c(=O)c1Cl)C2 | 0.01 to 1000 |
| O=c1[nH]ncc(N2CCc3nn(-c4ccccc4OC(F)(F)F)cc3C2)c1Cl | 1000 to 5000 |
| CCc1cccnc1Cn1cnc2c1CN(c1cn[nH]c(=O)c1Cl)CC2 | 5000 to 10000 |
| O=c1[nH]ncc(N2CCc3c(cnn3-c3ccccc3C(F)(F)F)C2)c1Cl | 1000 to 5000 |
| Cc1nc2c(n1Cc1ccccc1C(F)(F)F)CCN(c1c(Cl)cn[nH]c1=O)C2 | 10000 to 500000 |
| O=c1[nH]ncc(N2CCc3ncn(Cc4cnccc4C(F)(F)F)c3C2)c1Cl | 10000 to 500000 |
| N#Cc1c(N2CCc3ncn(Cc4cncc(F)c4)c3C2)cn[nH]c1=O | 1000 to 5000 |
| N#Cc1c(N2CCc3c(ncn3Cc3cncc(F)c3)C2)cn[nH]c1=O | 0.01 to 1000 |
| N#Cc1c(N2CCc3ncn(Cc4ccccc4C(F)F)c3C2)cn[nH]c1=O | 0.01 to 1000 |
| C[C@H](c1ccccc1C(F)(F)F)n1nnc2c1CCN(c1cn[nH]c(=O)c1C#N)C2 | 0.01 to 1000 |
| O=c1[nH]ncc(N2CCc3c(nnn3Cc3cccnc3CC(F)(F)F)C2)c1Cl | 0.01 to 1000 |
| CC[C@H](c1cccnc1)n1nnc2c1CCN(c1cn[nH]c(=O)c1Cl)C2 | 1000 to 5000 |
| C[C@H](c1ccccc1C(F)(F)F)n1nnc2c1CCN(c1cn[nH]c(=O)c1Cl)C2 | 0.01 to 1000 |
| O=c1[nH]ncc(N2CCc3c(nnn3Cc3ccc(F)cc3C(F)F)C2)c1Cl | 0.01 to 1000 |
| O=c1[nH]ncc(N2CCc3c(nnn3Cc3ccccc3OC(F)F)C2)c1Cl | 0.01 to 1000 |
| CCOc1cccc(Cn2cnc3c2CCN(c2cn[nH]c(=O)c2Cl)C3)n1 | 1000 to 5000 |
| O=c1[nH]ncc(N2CCc3c(cnn3Cc3cccnc3CC(F)(F)F)C2)c1Cl | 1000 to 5000 |
| CC(c1ccccc1C(F)(F)F)n1nnc2c1CCN(c1cn[nH]c(=O)c1C#N)C2 (stereo not drawn) | 5000 to 10000 |
| O=c1[nH]ncc(N2CCc3ncn(-c4ccccc4C(F)(F)F)c3C2)c1Cl [drawing 869] | 1000 to 5000 |
| N#Cc1ccccc1-n1cnc2c1CN(c1cn[nH]c(=O)c1C#N)CC2 [drawing 898] | 1000 to 5000 |
| O=c1[nH]ncc(N2CCc3c(cnn3Cc3ccc(F)cc3C(F)(F)F)C2)c1Cl [drawing 907] | 0.01 to 1000 |
| C[C@@H](c1ccccc1C(F)(F)F)n1nnc2c1CCN(c1cn[nH]c(=O)c1Cl)C2 [drawing 908] | 0.01 to 1000 |
